According to patent US20260193264A1, “BENZOYPARAZINE PYRAZINES AND THEIR USES” (FOGHORN THERAPEUTICS INC., priority 2022, published 2026):

Legend:
[1] = target: T1, HiBit-BRG1 fusion protein in stable HeLa cell line expressing HiBit-BRG1 and LgBit (Homo sapiens, UniProt P51532); test: HiBiT-BRG1 cell-based degradation assay (Nano-Glo HiBiT, 24 h); conditions: HeLa HiBit-BRG1/LgBit cells; for DC50: read-out: BRMG1 HiBit Degradation IC50; for Dmax: top dose 30 μM, read-out: BRG1 HiBit Degradation Maximum (%)
T1 construct: expressed in transfected cells
T1 sequence (P51532 whole entry, the tested form may be a part): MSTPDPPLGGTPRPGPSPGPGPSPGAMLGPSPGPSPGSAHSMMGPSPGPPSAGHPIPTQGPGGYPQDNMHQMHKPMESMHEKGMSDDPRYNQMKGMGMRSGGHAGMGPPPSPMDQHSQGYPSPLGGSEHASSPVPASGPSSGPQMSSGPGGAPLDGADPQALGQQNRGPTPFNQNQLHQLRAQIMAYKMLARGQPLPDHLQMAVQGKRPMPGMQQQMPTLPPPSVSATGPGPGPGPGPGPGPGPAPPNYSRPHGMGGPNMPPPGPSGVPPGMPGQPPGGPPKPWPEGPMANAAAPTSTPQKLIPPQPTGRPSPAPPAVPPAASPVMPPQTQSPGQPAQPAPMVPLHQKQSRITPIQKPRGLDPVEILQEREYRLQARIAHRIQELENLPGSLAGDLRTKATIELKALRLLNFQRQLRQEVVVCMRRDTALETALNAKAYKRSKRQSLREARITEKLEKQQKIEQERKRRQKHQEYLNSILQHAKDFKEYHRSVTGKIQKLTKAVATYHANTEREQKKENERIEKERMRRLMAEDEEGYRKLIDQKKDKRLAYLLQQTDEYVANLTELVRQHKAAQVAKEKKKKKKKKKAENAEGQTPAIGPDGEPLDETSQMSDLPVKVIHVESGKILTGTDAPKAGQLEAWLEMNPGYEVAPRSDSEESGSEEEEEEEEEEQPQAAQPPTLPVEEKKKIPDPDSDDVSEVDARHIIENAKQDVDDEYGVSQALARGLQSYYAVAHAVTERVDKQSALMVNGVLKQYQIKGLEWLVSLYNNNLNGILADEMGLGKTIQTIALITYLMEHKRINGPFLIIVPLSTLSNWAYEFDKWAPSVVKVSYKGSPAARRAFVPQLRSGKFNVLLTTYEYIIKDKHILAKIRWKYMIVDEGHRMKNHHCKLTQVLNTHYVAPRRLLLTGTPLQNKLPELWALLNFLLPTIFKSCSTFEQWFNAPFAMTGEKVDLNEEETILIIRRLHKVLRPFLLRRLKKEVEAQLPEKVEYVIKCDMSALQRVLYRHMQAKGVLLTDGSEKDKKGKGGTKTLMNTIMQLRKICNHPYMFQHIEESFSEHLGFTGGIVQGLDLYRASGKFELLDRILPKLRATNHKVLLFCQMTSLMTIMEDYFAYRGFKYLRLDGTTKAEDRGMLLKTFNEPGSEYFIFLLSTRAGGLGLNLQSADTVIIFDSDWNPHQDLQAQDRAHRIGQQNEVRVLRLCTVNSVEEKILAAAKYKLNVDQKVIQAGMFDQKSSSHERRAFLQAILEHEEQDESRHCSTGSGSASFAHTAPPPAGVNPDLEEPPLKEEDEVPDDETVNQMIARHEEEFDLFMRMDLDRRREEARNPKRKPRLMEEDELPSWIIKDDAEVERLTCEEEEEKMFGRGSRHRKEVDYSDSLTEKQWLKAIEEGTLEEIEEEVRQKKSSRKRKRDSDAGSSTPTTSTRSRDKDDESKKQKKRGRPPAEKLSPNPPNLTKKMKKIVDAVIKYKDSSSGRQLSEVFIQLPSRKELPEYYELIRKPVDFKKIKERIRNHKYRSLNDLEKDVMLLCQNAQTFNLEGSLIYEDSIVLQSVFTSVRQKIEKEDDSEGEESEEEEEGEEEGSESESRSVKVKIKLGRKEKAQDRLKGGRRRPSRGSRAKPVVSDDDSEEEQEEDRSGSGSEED
Outline: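 Degradation calculated from NanoBiT luminescence relative to DMSO-treated cells (high) and cells given 2 μM known BRM/BRG1 degrader (low). HeLa cells stably expressing HiBiT-BRG1 plus LgBiT were exposed to compound for 24 h before lytic HiBiT detection.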

[2] = target: T2, HiBiT-BRM fusion protein in stable HeLa cell line (Homo sapiens, UniProt P51531); test: HiBiT-BRM cell-based degradation assay (Nano-Glo HiBiT Lytic Detection, 24 h); parameters: DC50: scale not given here; conditions: HeLa HiBiT-BRM cells; for DC50: read-out: BRM HiBit Degradation IC50; for BRM HiBit Degradation Maximum (%): top dose 30 μM
T2 construct: expressed in transfected cells
T2 sequence (P51531 whole entry, the tested form may be a part): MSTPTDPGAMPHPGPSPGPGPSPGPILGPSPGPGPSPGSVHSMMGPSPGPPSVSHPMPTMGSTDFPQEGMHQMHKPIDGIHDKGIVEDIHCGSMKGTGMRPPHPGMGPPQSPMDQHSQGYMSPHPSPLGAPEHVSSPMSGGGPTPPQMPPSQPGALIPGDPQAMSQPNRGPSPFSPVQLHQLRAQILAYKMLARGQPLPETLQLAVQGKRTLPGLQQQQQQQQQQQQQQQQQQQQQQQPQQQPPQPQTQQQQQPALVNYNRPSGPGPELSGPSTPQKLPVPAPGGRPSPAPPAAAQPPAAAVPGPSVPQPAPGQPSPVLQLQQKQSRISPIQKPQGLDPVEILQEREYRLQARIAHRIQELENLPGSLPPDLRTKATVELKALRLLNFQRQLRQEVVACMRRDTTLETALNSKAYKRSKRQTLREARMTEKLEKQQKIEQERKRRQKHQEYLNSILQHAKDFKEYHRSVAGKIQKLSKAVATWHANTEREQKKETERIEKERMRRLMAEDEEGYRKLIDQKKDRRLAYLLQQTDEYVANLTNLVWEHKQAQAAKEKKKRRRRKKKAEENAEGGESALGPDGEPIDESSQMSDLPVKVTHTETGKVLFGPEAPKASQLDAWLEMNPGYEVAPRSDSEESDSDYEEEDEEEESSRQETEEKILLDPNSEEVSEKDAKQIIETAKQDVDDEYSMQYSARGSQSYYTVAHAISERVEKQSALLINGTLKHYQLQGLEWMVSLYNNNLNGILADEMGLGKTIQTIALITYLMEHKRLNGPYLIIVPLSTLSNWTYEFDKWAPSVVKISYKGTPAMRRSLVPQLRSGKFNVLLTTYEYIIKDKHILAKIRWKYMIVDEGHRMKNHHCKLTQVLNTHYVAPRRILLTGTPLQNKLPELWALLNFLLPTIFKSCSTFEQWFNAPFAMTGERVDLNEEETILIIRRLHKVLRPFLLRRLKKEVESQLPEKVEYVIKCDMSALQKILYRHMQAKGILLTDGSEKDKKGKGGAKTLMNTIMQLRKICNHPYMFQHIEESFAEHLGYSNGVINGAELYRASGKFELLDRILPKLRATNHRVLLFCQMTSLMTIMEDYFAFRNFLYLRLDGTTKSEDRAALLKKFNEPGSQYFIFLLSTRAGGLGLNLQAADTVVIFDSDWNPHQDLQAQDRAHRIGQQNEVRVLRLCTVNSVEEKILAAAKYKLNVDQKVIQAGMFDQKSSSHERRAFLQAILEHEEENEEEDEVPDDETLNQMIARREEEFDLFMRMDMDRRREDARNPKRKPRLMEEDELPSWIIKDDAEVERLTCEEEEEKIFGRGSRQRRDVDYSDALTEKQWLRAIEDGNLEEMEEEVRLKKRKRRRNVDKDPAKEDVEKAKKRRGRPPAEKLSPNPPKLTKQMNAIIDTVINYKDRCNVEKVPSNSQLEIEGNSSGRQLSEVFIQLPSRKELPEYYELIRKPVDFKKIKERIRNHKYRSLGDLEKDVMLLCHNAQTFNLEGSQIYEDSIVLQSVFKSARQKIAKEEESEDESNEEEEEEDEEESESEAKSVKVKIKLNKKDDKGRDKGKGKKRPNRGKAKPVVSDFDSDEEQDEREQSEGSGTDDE
Outline: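 HeLa stably expressing HiBiT-BRM; 24 h compound exposure, 10-pt 3-fold dilution from 30 μM final, duplicates. Lytic LgBiT complementation, luminescence. % degradation vs DMSO (HC) and 2 μM known BRM/BRG1 degrader (LC).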

Row | Structure (SMILES) | DC50 [1] [nM] | Dmax [1] [%] | DC50 [2] [nM] | BRM HiBit Degradation Maximum (%) [2]
1 | Cc1ncsc1-c1ccc([C@H](C)NC(=O)[C@@H]2C[C@@H](O)CN2C(=O)[C@@H](c2cc(N3C[C@H]4CN(c5ccc6cc(-c7ccccc7O)nnc6c5)C[C@H]4C3)no2)C(C)C)cc1 [Compound 131, (2S,4R)-4-hydroxy-1-((R)-2-(3-((3aR,6aS)-5-(3-(2-hydroxyphenyl)cinnolin-7-yl)hexahydropyrrolo[3,4-c]pyrrol-2(1H)-yl)isoxazol-5-yl)-3-methylbutanoyl)-N-((S)-1-(4-(4-methylthiazol-5-yl)phenyl)ethyl)pyrrolidine-2-carboxamide] | – | > 50 | < 10 | A (“A” indicates maximum degradation ≥75%)
2 | CC(C)[C@@H](C(=O)N1C[C@H](O)C[C@H]1C(=O)N[C@@H](C)c1ccccc1)c1cc(-c2ccc3nnc(-c4ccccc4O)cc3c2)no1 [Compound 133, (2S,4R)-4-hydroxy-1-((R)-2-(3-(3-(2-hydroxyphenyl)cinnolin-6-yl)isoxazol-5-yl)-3-methylbutanoyl)-N-((S)-1-phenylethyl)pyrrolidine-2-carboxamide] | > 10 | > 75 | < 10 | A (“A” indicates maximum degradation ≥75%)
3 | CC(C)[C@@H](C(=O)N1C[C@H](O)C[C@H]1C(=O)N[C@@H](C)c1ccc(F)cc1)c1cc(-c2ccc3nnc(-c4ccccc4O)cc3c2)no1 [Compound 134, (2S,4R)-N-((S)-1-(4-fluorophenyl)ethyl)-4-hydroxy-1-((R)-2-(3-(3-(2-hydroxyphenyl)cinnolin-6-yl)isoxazol-5-yl)-3-methylbutanoyl)pyrrolidine-2-carboxamide] | > 10 | > 75 | < 10 | A (“A” indicates maximum degradation ≥75%)
4 | Cc1ncsc1-c1ccc([C@H](C)NC(=O)[C@@H]2C[C@@H](O)CN2C(=O)[C@@H](c2cc(N3CCN([C@@H]4CCN(Cc5ccc6nnc(-c7ccccc7O)cc6c5)CC4(F)F)CC3)no2)C(C)C)cc1 [Compound 136, (2S,4R)-1-((R)-2-(3-(4-((R)-3,3-difluoro-1-((3-(2-hydroxyphenyl)cinnolin-6-yl)methyl)piperidin-4-yl)piperazin-1-yl)isoxazol-5-yl)-3-methylbutanoyl)-4-hydroxy-N-((S)-1-(4-(4-methylthiazol-5-yl)phenyl)ethyl)pyrrolidine-2-carboxamide] | < 10 | > 75 | < 10 | A (“A” indicates maximum degradation ≥75%)
5 | Cc1ncsc1-c1ccc([C@H](C)NC(=O)[C@@H]2C[C@@H](O)CN2C(=O)[C@@H](c2cc(N3CCN([C@H]4CCN(Cc5ccc6nnc(-c7ccccc7O)cc6c5)CC4(F)F)CC3)no2)C(C)C)cc1 [Compound 137, (2S,4R)-1-((R)-2-(3-(4-((S)-3,3-difluoro-1-((3-(2-hydroxyphenyl)cinnolin-6-yl)methyl)piperidin-4-yl)piperazin-1-yl)isoxazol-5-yl)-3-methylbutanoyl)-4-hydroxy-N-((S)-1-(4-(4-methylthiazol-5-yl)phenyl)ethyl)pyrrolidine-2-carboxamide] | < 10 | > 75 | < 10 | A (“A” indicates maximum degradation ≥75%)
6 | COC[C@H]1CN(c2cc([C@H](C(=O)N3C[C@H](O)C[C@H]3C(=O)N[C@@H](C)c3ccc(-c4scnc4C)cc3)C(C)C)on2)CCN1c1ccc2nnc(-c3ccccc3O)cc2c1 [Compound 138, (2S,4R)-4-hydroxy-1-((R)-2-(3-((R)-4-(3-(2-hydroxyphenyl)cinnolin-6-yl)-3-(methoxymethyl)piperazin-1-yl)isoxazol-5-yl)-3-methylbutanoyl)-N-((S)-1-(4-(4-methylthiazol-5-yl)phenyl)ethyl)pyrrolidine-2-carboxamide] | > 10 | > 75 | < 10 | A (“A” indicates maximum degradation ≥75%)
7 | COC[C@H]1CN(c2cc([C@H](C(=O)N3C[C@H](O)C[C@H]3C(=O)N[C@@H](C)c3ccc(-c4scnc4C)cc3)C(C)C)on2)CCN1c1ccc2cc(-c3ccccc3O)nnc2c1 [Compound 142, (2S,4R)-4-hydroxy-1-((R)-2-(3-((R)-4-(3-(2-hydroxyphenyl)cinnolin-7-yl)-3-(methoxymethyl)piperazin-1-yl)isoxazol-5-yl)-3-methylbutanoyl)-N-((S)-1-(4-(4-methylthiazol-5-yl)phenyl)ethyl)pyrrolidine-2-carboxamide] | – | < 50 | > 10 | A (“A” indicates maximum degradation ≥75%)
8 | Cc1ncsc1-c1ccc([C@H](C)NC(=O)[C@@H]2C[C@@H](O)CN2C(=O)[C@@H](c2cc(-c3ccc4nnc(-c5cccc(F)c5O)cc4c3)no2)C(C)C)cc1 [Compound 143, (2S,4R)-1-((R)-2-(3-(3-(3-fluoro-2-hydroxyphenyl)cinnolin-6-yl)isoxazol-5-yl)-3-methylbutanoyl)-4-hydroxy-N-((S)-1-(4-(4-methylthiazol-5-yl)phenyl)ethyl)pyrrolidine-2-carboxamide] | – | < 50 | < 10 | A (“A” indicates maximum degradation ≥75%)
9 | Cc1ncsc1-c1ccc([C@H](C)NC(=O)[C@@H]2C[C@@H](O)CN2C(=O)[C@@H](c2cc(N3CC4(CN(c5cc(C)c6cc(-c7ccccc7O)nnc6c5)C4)C3)no2)C(C)C)cc1 [Compound 145, (2S,4R)-4-hydroxy-1-((R)-2-(3-(6-(3-(2-hydroxyphenyl)-5-methylcinnolin-7-yl)-2,6-diazaspiro[3.3]heptan-2-yl)isoxazol-5-yl)-3-methylbutanoyl)-N-((S)-1-(4-(4-methylthiazol-5-yl)phenyl)ethyl)pyrrolidine-2-carboxamide] | – | < 50 | < 10 | A (“A” indicates maximum degradation ≥75%)

Now from value to molecule, other results behind:

Row | DC50 [1] [nM] | Dmax [1] [%] | DC50 [2] [nM] | Structure (SMILES) | BRM HiBit Degradation Maximum (%) [2]
10 | < 10 | > 75 | < 10 | Cc1ncsc1-c1ccc([C@H](C)NC(=O)[C@@H]2C[C@@H](O)CN2C(=O)[C@@H](c2cc(N3CCC4(CN(c5ccc6cc(-c7ccccc7O)nnc6c5)C4)C3)no2)C(C)C)cc1 [Compound 130, (2S,4R)-4-hydroxy-1-((R)-2-(3-(2-(3-(2-hydroxyphenyl)cinnolin-7-yl)-2,6-diazaspiro[3.4]octan-6-yl)isoxazol-5-yl)-3-methylbutanoyl)-N-((S)-1-(4-(4-methylthiazol-5-yl)phenyl)ethyl)pyrrolidine-2-carboxamide] | A (“A” indicates maximum degradation ≥75%)
11 | < 10 | > 75 | < 10 | Cc1ncsc1-c1ccc([C@H](C)NC(=O)[C@@H]2C[C@@H](O)CN2C(=O)[C@@H](c2cc(N3CC4(CCN(c5ccc6cc(-c7ccccc7O)nnc6c5)C4)C3)no2)C(C)C)cc1 [Compound 132, (2S,4R)-4-hydroxy-1-((R)-2-(3-(6-(3-(2-hydroxyphenyl)cinnolin-7-yl)-2,6-diazaspiro[3.4]octan-2-yl)isoxazol-5-yl)-3-methylbutanoyl)-N-((S)-1-(4-(4-methylthiazol-5-yl)phenyl)ethyl)pyrrolidine-2-carboxamide] | A (“A” indicates maximum degradation ≥75%)
12 | > 10 | > 75 | < 10 | COC[C@@H]1CN(c2cc(C(C(=O)N3C[C@H](O)C[C@H]3C(=O)N[C@@H](C)c3ccc(-c4scnc4C)cc3)C(C)C)on2)CCN1c1ccc2nnc(-c3ccccc3O)cc2c1 (stereo partly drawn) [Compound 144, (2S,4R)-4-hydroxy-1-(2-(3-((S)-4-(3-(2-hydroxyphenyl)cinnolin-6-yl)-3-(methoxymethyl)piperazin-1-yl)isoxazol-5-yl)-3-methylbutanoyl)-N-((S)-1-(4-(4-methylthiazol-5-yl)phenyl)ethyl)pyrrolidine-2-carboxamide] | A (“A” indicates maximum degradation ≥75%)
13 | > 10 | > 75 | < 10 | Cc1ncsc1-c1ccc([C@H](C)NC(=O)[C@@H]2C[C@@H](O)CN2C(=O)[C@@H](c2cc(N3CCOC4(CN(c5ccc6nnc(-c7ccccc7O)cc6c5)C4)C3)no2)C(C)C)cc1 [Compound 146, (2S,4R)-4-hydroxy-1-((R)-2-(3-(2-(3-(2-hydroxyphenyl)cinnolin-6-yl)-5-oxa-2,8-diazaspiro[3.5]nonan-8-yl)isoxazol-5-yl)-3-methylbutanoyl)-N-((S)-1-(4-(4-methylthiazol-5-yl)phenyl)ethyl)pyrrolidine-2-carboxamide] | A (“A” indicates maximum degradation ≥75%)
14 | > 10 | > 75 | < 10 | Cc1ncsc1-c1ccc([C@H](C)NC(=O)[C@@H]2C[C@@H](O)CN2C(=O)[C@@H](c2cc(N3CCOC4(CCN(c5ccc6nnc(-c7ccccc7O)cc6c5)CC4)C3)no2)C(C)C)cc1 [Compound 147, (2S,4R)-4-hydroxy-1-((R)-2-(3-(9-(3-(2-hydroxyphenyl)cinnolin-6-yl)-1-oxa-4,9-diazaspiro[5.5]undecan-4-yl)isoxazol-5-yl)-3-methylbutanoyl)-N-((S)-1-(4-(4-methylthiazol-5-yl)phenyl)ethyl)pyrrolidine-2-carboxamide] | A (“A” indicates maximum degradation ≥75%)
